Experiment [1] deals with T1, human p70S6 kinase (p70S6K, kinase domain residues 1-421, T412E mutation) (Homo sapiens, UniProt P23443, T412E).
T1 construct: human p70S6 kinase domainresidues 1-421, containing a T412E mutation; made in house
The experiment is described as follows: p70S6 kinase assay, Luciferase-Coupled Chemiluminescent Kinase assay (LCCA). The class given is biochemical. Particulars: 5 μM ATP, 12 nM p70S6K; read-out: p70S6K inhibition IC50. As for the experimental part: (§1) Kinase activity and compound inhibition are investigated using one or more of the three assay formats described below. The ATP concentrations for each assay are selected to be close to the Michaelis-Menten constant (KM) for each individual kinase. Dose-response experiments are performed at 10 different inhibitor concentrations in a 384-well plate format. The data are fitted to four-parameter equation (2) below; where Y is the observed signal, X is the inhibitor concentration, Min is the background signal in the absence of enzyme (0% enzyme activity), Max is the signal in the absence of inhibitor (100% enzyme activity), IC50 is the inhibitor concentration at 50% enzyme inhibition and H represents the empirical Hill's slope to measure the cooperativity. Typically H is close to unity. Y=Min+(Max−Min)/(1+(X/IC50)^H) Equation (2) p70S6 Kinase Assay
Biochemical activity of p70S6 kinase was assessed using a Luciferase-Coupled Chemiluminescent Kinase assay (LCCA) format. Kinase activity was measured as the percent ATP remaining following the kinase reaction. Remaining ATP was detected by luciferase-luciferin-coupled chemiluminescence. Specifically, the reaction was initiated by mixing test compounds, 5 μM ATP, 5 μM RRRLSSLRA peptide and 12 nM p70S6K (baculovirus expressed human p70S6 kinase domainresidues 1-421, containing a T412E mutation) in a 20 uL assay buffer (20 mM Tris-HCL pH 7.5, 10 mM MgCl2, 0.02% Triton X-100, 100 mM DTT, 2 mM MnCl2). The mixture is incubated at ambient temperature for 2 hours after which 20 μL luciferase-luciferin mix is added and the chemiluminescent signal read using a Wallac Victor^2 reader. The luciferase-luciferin mix consists of 50 mM HEPES, pH 7.8, 8.5 μg/mL oxalic acid (pH 7.8), 5 (or 50) mM DTT, 0.4% Triton X-100, 0.25 mg/mL coenzyme A, 63 uM AMP, 28 μg/mL luciferin and 40,000 units/mL luciferase.

The target in experiment [2] is T2, human Akt1 kinase (kinase domain residues R144-A480, activated with PDK1) (Homo sapiens, UniProt P31749).
T2 construct: made in house
T2 sequence (P31749 144-480): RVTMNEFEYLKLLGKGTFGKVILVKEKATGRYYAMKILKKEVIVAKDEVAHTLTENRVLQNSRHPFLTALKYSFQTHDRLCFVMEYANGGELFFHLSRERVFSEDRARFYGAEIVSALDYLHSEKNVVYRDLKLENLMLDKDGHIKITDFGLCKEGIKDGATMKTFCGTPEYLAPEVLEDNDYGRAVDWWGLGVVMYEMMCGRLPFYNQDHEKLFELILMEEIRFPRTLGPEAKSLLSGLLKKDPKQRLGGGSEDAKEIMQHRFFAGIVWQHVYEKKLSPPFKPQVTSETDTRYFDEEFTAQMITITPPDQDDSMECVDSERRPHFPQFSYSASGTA
Kind of experiment: Akt1 kinase assay, Luciferase-Coupled Chemiluminescent Kinase assay (LCCA). The following applies: 1 μM ATP, 1.3 nM Akt1; read-out: Akt-1 inhibition IC50. The class given is biochemical. As for the experimental part:
as §1
Biochemical activity of Akt1 kinase was assessed using a Luciferase-Coupled Chemiluminescent Kinase assay (LCCA) format. Kinase activity was measured as the percent ATP remaining following the kinase reaction. Remaining ATP was detected by luciferase-luciferin-coupled chemiluminescence. Specifically, the reaction was initiated by mixing test compounds, 1 μM ATP, 5 μM crosstide peptide and 1.3 nM Akt1 (baculovirus expressed human Akt1 kinase domain residues R144-A480, activated with PDK1) in a 20 uL assay buffer (20 mM Tris-HCL pH 7.5, 10 mM MgCl2, 0.01% Triton X-100, 1 mM DTT, 3 mM MnCl2). The mixture is incubated at ambient temperature for 3 hours after which 20 μL luciferase-luciferin mix is added and the chemiluminescent signal read using a Wallac Victor2 reader. The luciferase-luciferin mix consists of 50 mM HEPES, pH 7.8, 8.5 μg/mL oxalic acid (pH 7.8), 5 (or 50) mM DTT, 0.4% Triton X-100, 0.25 mg/mL coenzyme A, 63 uM AMP, 28 μg/mL luciferin and 40,000 units/mL luciferase.

Bounds are passed on as bounds.

T1 sequence (P23443 1-421 T412E): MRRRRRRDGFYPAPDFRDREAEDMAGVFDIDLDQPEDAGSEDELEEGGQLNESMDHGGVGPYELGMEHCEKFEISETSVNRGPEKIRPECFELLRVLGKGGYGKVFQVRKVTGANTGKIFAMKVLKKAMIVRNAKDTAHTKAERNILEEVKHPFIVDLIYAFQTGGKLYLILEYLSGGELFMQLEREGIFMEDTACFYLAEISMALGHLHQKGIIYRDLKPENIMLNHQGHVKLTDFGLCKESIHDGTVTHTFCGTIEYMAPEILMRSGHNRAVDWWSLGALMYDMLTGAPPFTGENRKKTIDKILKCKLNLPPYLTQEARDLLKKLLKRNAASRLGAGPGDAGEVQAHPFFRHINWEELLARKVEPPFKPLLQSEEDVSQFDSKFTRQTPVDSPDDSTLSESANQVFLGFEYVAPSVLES

As to `OC(c1ccc(Cl)cc1)C1CCN(c2ncnc3[nH]nc(Br)c23)CC1` (stereo not shown) [Entry 1, [1-(3-bromo-1H-pyrazolo[3,4-d]pyrimidin-4-yl)piperidin-4-yl](4-chlorophenyl)methanol], the IC50 in experiment [1] and in experiment [2] was less than 50 nM in each case.
For the molecule `CN(C)CCCOC(c1ccc(Cl)cc1)C1CCN(c2ncnc3[nH]nc(Br)c23)CC1` (stereo not shown) [Entry 3, 3-{[[1-(3-bromo-1H-pyrazolo[3,4-d]pyrimidin-4-yl)piperidin-4-yl](4-chlorophenyl)methyl]oxy}-N,N-dimethylpropan-1-amine], the IC50 in experiment [1] and in experiment [2] was less than 50 nM each time.
As to `Brc1ccc(CN2CCN(c3ncnc4[nH]nc(Br)c34)CC2)cc1` [Entry 4, 3-bromo-4-{4-[(4-bromophenyl)methyl]piperazin-1-yl}-1H-pyrazolo[3,4-d]pyrimidine], the figures for the IC50 in experiment [1] and in experiment [2] were less than 50 nM and 50 to 500 nM, respectively.
Turning to `OCC1CN(c2ncnc3[nH]nc(Br)c23)CCN1Cc1ccc(Cl)cc1` (stereo not shown) [Entry 5, {4-(3-bromo-1H-pyrazolo[3,4-d]pyrimidin-4-yl)-1-[(4-chlorophenyl)methyl]piperazin-2-yl}methanol], the IC50 (commonly the concentration that gives 50% inhibition) in experiment [1] was less than 50 nM; in experiment [2], 50 to 500 nM.
For `CCN(CC)CCNC(c1ccc(Cl)cc1)C1CCN(c2ncnc3[nH]nc(Br)c23)CC1` (stereo not shown) [Entry 6, N′-[[1-(3-bromo-1H-pyrazolo[3,4-d]pyrimidin-4-yl)piperidin-4-yl](4-chlorophenyl)methyl]-N,N-diethylethane-1,2-diamine], in that order: less than 50 nM and less than 50 nM.
Taken in the same sequence, the figures for `O=C1CN(c2ncnc3[nH]nc(Br)c23)CCN1Cc1ccc(Cl)cc1` [Entry 8, 4-(3-bromo-1H-pyrazolo[3,4-d]pyrimidin-4-yl)-1-[(4-chlorophenyl)methyl]piperazin-2-one] were less than 50 nM and 50 to 500 nM.
As for `CN(C)CCNC(=O)C(c1ccc(Cl)cc1)N1CCN(c2ncnc3[nH]nc(Br)c23)CC1` (stereo not shown) [Entry 9, 2-[4-(3-bromo-1H-pyrazolo[3,4-d]pyrimidin-4-yl)piperazin-1-yl]-2-(4-chlorophenyl)-N-[2-(dimethylamino)ethyl]acetamide], the IC50 in experiment [1] and in experiment [2] was less than 50 nM throughout.
In the case of `CCN(CC)CCCN(c1ccc(Cl)cc1)C1CCN(c2ncnc3[nH]nc(Br)c23)CC1` [Entry 10, N-[1-(3-bromo-1H-pyrazolo[3,4-d]pyrimidin-4-yl)piperidin-4-yl]-N-(4-chlorophenyl)-N′,N′-diethylpropane-1,3-diamine], the half-maximal inhibitory concentration (IC50) in experiment [1] and in experiment [2] was less than 50 nM each time.
Regarding `CN(C)CCNC(=O)N(c1ccc(Cl)cc1)C1CCN(c2ncnc3[nH]nc(Br)c23)CC1` [Entry 12, N-[1-(3-bromo-1H-pyrazolo[3,4-d]pyrimidin-4-yl)piperidin-4-yl]-N-(4-chlorophenyl)-N′-[2-(dimethylamino)ethyl]urea], the IC50 in experiment [1] and in experiment [2] was less than 50 nM each time.
Consider `CN(C)CCNC(=O)NC(c1ccc(Cl)cc1)C1CCN(c2ncnc3[nH]nc(Br)c23)CC1` (stereo not shown) [Entry 13, N-[[1-(3-bromo-1H-pyrazolo[3,4-d]pyrimidin-4-yl)piperidin-4-yl](4-chlorophenyl)methyl]-N′-[2-(dimethylamino)ethyl]urea], for which the IC50 in experiment [1] and in experiment [2] was less than 50 nM in each case.
Turning to `CN(C)CCNC(=O)C(c1ccc(Cl)cc1)N1CCN(c2ncnc3[nH]nc(Br)c23)CC1=O` (stereo not shown) [Entry 14, 2-[4-(3-bromo-1H-pyrazolo[3,4-d]pyrimidin-4-yl)-2-oxopiperazin-1-yl]-2-(4-chlorophenyl)-N-[2-(dimethylamino)ethyl]acetamide], the IC50 in experiment [1] and in experiment [2] was less than 50 nM throughout.
With `CN(C)CCOC(=O)N(c1ccc(Cl)cc1)C1CCN(c2ncnc3[nH]nc(Br)c23)CC1` [Entry 15, 2-(dimethylamino)ethyl [1-(3-bromo-1H-pyrazolo[3,4-d]pyrimidin-4-yl)piperidin-4-yl](4-chlorophenyl)carbamate], the IC50 in experiment [1] and in experiment [2] was less than 50 nM in each case.
For `Fc1cc(CN2CCN(c3ncnc4[nH]nc(Br)c34)CC2)ccc1Cl` [Entry 16, 3-bromo-4-{4-[(4-chloro-3-fluorophenyl)methyl]piperazin-1-yl}-1H-pyrazolo[3,4-d]pyrimidine], the results for the IC50 in experiment [1] and in experiment [2] were less than 50 nM and 50 to 500 nM, respectively.
For `Fc1cc(Cl)ccc1CN1CCN(c2ncnc3[nH]nc(Br)c23)CC1` [Entry 17, 3-bromo-4-{4-[(4-chloro-2-fluorophenyl)methyl]piperazin-1-yl}-1H-pyrazolo[3,4-d]pyrimidine], in that order: less than 50 nM and 50 to 500 nM.
Taken in the same sequence, the figures for `CCN(CC)CCN(c1ccc(Cl)cc1)C1CCN(c2ncnc3[nH]nc(Br)c23)CC1` [Entry 18, N-[1-(3-bromo-1H-pyrazolo[3,4-d]pyrimidin-4-yl)piperidin-4-yl]-N-(4-chlorophenyl)-N′,N′-diethylethane-1,2-diamine] were less than 50 nM and less than 50 nM.
For `O=C(c1ccc(F)cc1)C1CCN(c2ncnc3[nH]nc(Br)c23)CC1` [Entry 20, [1-(3-bromo-1H-pyrazolo[3,4-d]pyrimidin-4-yl)piperidin-4-yl](4-fluorophenyl)methanone], in that order: less than 50 nM and less than 50 nM.
Turning to `CCN(CC)CCN(C)C(c1ccc(Cl)cc1)C1CCN(c2ncnc3[nH]nc(Br)c23)CC1` (stereo not shown) [Entry 21, N-[[1-(3-bromo-1H-pyrazolo[3,4-d]pyrimidin-4-yl)piperidin-4-yl](4-chlorophenyl)methyl]-N′,N′-diethyl-N-methylethane-1,2-diamine], the IC50 in experiment [1] and in experiment [2] was less than 50 nM each time.
Consider `OC(c1ccc(F)cc1)C1CCN(c2ncnc3[nH]nc(Br)c23)CC1` (stereo not shown) [Entry 22, [1-(3-bromo-1H-pyrazolo[3,4-d]pyrimidin-4-yl)piperidin-4-yl](4-fluorophenyl)methanol], for which the IC50 is less than 50 nM in experiment [1] and 50 to 500 nM in experiment [2].
Taken in the same sequence, the figures for `Fc1cc(C(F)(F)F)ccc1CN1CCN(c2ncnc3[nH]nc(Br)c23)CC1` [Entry 23, 3-bromo-4-(4-{[2-fluoro-4-(trifluoromethyl)phenyl]methyl}piperazin-1-yl)-1H-pyrazolo[3,4-d]pyrimidine] were less than 50 nM and 50 to 500 nM.
For `CCN(CC)CCC(=O)N(c1ccc(Cl)cc1)C1CCN(c2ncnc3[nH]nc(Br)c23)CC1` [Entry 24, N-[1-(3-bromo-1H-pyrazolo[3,4-d]pyrimidin-4-yl)piperidin-4-yl]-N-(4-chlorophenyl)-N~3~,N~3~-diethyl-beta-alaninamide], in that order: less than 50 nM and less than 50 nM.
Taken in the same sequence, the figures for `CN(C)CCOC(c1ccc(F)cc1)C1CCN(c2ncnc3[nH]nc(Br)c23)CC1` (stereo not shown) [Entry 25, 2-{[[1-(3-bromo-1H-pyrazolo[3,4-d]pyrimidin-4-yl)piperidin-4-yl](4-fluorophenyl)methyl]oxy}-N,N-dimethylethanamine] were less than 50 nM and less than 50 nM.
For `CCN(CC)CCC(=O)NC(c1ccc(Cl)cc1)C1CCN(c2ncnc3[nH]nc(Br)c23)CC1` (stereo not drawn) [Entry 26, N-[[1-(3-bromo-1H-pyrazolo[3,4-d]pyrimidin-4-yl)piperidin-4-yl](4-chlorophenyl)methyl]-N~3~,N~3~-diethyl-beta-alaninamide], the IC50 in experiment [1] and in experiment [2] was less than 50 nM in each case.
For the molecule `CN(C)CCNC(=O)C(=O)N(c1ccc(Cl)cc1)C1CCN(c2ncnc3[nH]nc(Br)c23)CC1` [Entry 28, N-[1-(3-bromo-1H-pyrazolo[3,4-d]pyrimidin-4-yl)piperidin-4-yl]-N-(4-chlorophenyl)-N′-[2-(dimethylamino)ethyl]ethanediamide], the IC50 in experiment [1] and in experiment [2] was less than 50 nM throughout.

For the origin of these results see patent publication US7994172B2, “[1H-pyrazolo[3, 4-D]pyrimidin-4-yl]-piperidine or -piperazine compounds as serine-theoronine kinase modulators (P70s6k, Atk1 and Atk2) for the treatment of immunological, inflammatory and proliferative diseases” (Exelixis, Inc., priority 2004, dated 2011).
